Test results as given in publication PMC7914897, “Cytotoxic Potential of a-Azepano- and 3-Amino-3,4-SeCo-Triterpenoids” (International Journal of Molecular Sciences, 2021).

Experiments:
SR (Leukemia) = assay: NCI-60 screen (SRB, 48 h); assay type: cell-based; conditions: Homo sapiens
MDA-MB-435 (Melanoma) = assay: NCI-60 screen (SRB, 48 h); assay type: cell-based; conditions: Homo sapiens
Leukemia subpanel = assay: cells; conditions: Homo sapiens
OVCAR-3 (Ovarian cancer) = assay: cells; conditions: Homo sapiens
Melanoma subpanel = assay: NCI-60 screen, subpanel; conditions: Homo sapiens
Prostate cancer subpanel = assay: NCI-60 screen, subpanel; conditions: Homo sapiens
CCRF-CEM (Leukemia) = assay: NCI-60 screen (SRB, 48 h); conditions: Homo sapiens
K-562 (Leukemia) = assay: NCI-60 screen (SRB, 48 h); conditions: Homo sapiens
MOLT-4 (Leukemia) = assay: NCI-60 screen (SRB, 48 h); conditions: Homo sapiens
RPMI-8226 (Leukemia) = assay: NCI-60 screen (SRB, 48 h); conditions: Homo sapiens
HOP-92 (NSC lung cancer) = assay: NCI-60 screen (SRB, 48 h); conditions: Homo sapiens
[1] = test system: NCI-H226 (NSC lung cancer); assay: NCI-60 screen (SRB, 48 h); conditions: Homo sapiens
COLO 205 (Colon cancer) = assay: NCI-60 screen (SRB, 48 h); conditions: Homo sapiens
HCC-2998 (Colon cancer) = assay: NCI-60 screen (SRB, 48 h); conditions: Homo sapiens
HCT-15 (Colon cancer) = assay: NCI-60 screen (SRB, 48 h); conditions: Homo sapiens
HT29 (Colon cancer) = assay: NCI-60 screen (SRB, 48 h); conditions: Homo sapiens
KM12 (Colon cancer) = assay: NCI-60 screen (SRB, 48 h); conditions: Homo sapiens
SW-620 (Colon cancer) = assay: NCI-60 screen (SRB, 48 h); conditions: Homo sapiens
SNB-19 (CNS cancer) = assay: NCI-60 screen (SRB, 48 h); conditions: Homo sapiens
MALME-3M (Melanoma) = assay: NCI-60 screen (SRB, 48 h); conditions: Homo sapiens
SK-MEL-5 (Melanoma) = assay: NCI-60 screen (SRB, 48 h); conditions: Homo sapiens
UACC-257 (Melanoma) = assay: NCI-60 screen (SRB, 48 h); conditions: Homo sapiens
IGROV1 (Ovarian cancer) = assay: NCI-60 screen (SRB, 48 h); conditions: Homo sapiens
TK-10 (Renal cancer) = assay: NCI-60 screen (SRB, 48 h); conditions: Homo sapiens
UO-31 (Renal cancer) = assay: NCI-60 screen (SRB, 48 h); conditions: Homo sapiens
DU-145 (Prostate cancer) = assay: NCI-60 screen (SRB, 48 h); conditions: Homo sapiens
MCF7 (Breast cancer) = assay: NCI-60 screen (SRB, 48 h); conditions: Homo sapiens
HS 578T (Breast cancer) = assay: NCI-60 screen (SRB, 48 h); conditions: Homo sapiens
T-47D (Breast cancer) = assay: NCI-60 screen (SRB, 48 h); conditions: Homo sapiens, T47D

In the case of `Cc1ccc(S(=O)(=O)OC[C@@]2(C)CC[C@]3(C)CC[C@]4(C)C(=C3C2)C=C[C@@H]2[C@@]3(C)CCCNC(C)(C)[C@@H]3CC[C@]24C)cc1` [Compound 16], the GI50 (SR (Leukemia)) was 0.31 µM, the CC50 (SR (Leukemia); read-out: LC50 (the source's name)) was greater than 100 µM and the GI50 (MDA-MB-435 (Melanoma); MDA-MB-435) was 1.64 µM. It also gave an IC (TGI) (MDA-MB-435 (Melanoma); MDA-MB-435, 48 h, read-out: TGI) of 3.07 µM, a CC50 (MDA-MB-435 (Melanoma); MDA-MB-435, read-out: LC50 (the source's name)) of 5.75 µM and an IC (TGI) (Leukemia subpanel; 48 h, read-out: TGI MG_MID) of 4.72 µM. The GI50 (Leukemia subpanel; read-out: GI50 MG_MID) was 1.61 µM, the CC50 (Leukemia subpanel; read-out: LC50 MG_MID) was greater than 100 µM and the GI50 (OVCAR-3 (Ovarian cancer); OVCAR-3) was 1.88 µM. It also gave an IC (TGI) (OVCAR-3 (Ovarian cancer); OVCAR-3, 48 h, read-out: TGI) of 3.56 µM, an IC (TGI) (Melanoma subpanel; 48 h, read-out: TGI MG_MID) of 3.36 µM and a GI50 (Melanoma subpanel; read-out: GI50 MG_MID) of 1.77 µM. It also gave a CC50 (Melanoma subpanel; read-out: LC50 MG_MID) of 6.16 µM, an IC (TGI) (Prostate cancer subpanel; 48 h, read-out: TGI MG_MID) of 3.19 µM and a GI50 (Prostate cancer subpanel; read-out: GI50 MG_MID) of 1.67 µM. It also gave a CC50 (Prostate cancer subpanel; read-out: LC50 MG_MID) of 6.1 µM, a GI50 (CCRF-CEM (Leukemia)) of 2.14 µM and an IC (TGI) (CCRF-CEM (Leukemia); 48 h, read-out: TGI) of 6.06 µM. It also gave a CC50 (CCRF-CEM (Leukemia); read-out: LC50) greater than 100 µM, a GI50 (K-562 (Leukemia); K562) of 1.28 µM and a CC50 (K-562 (Leukemia); K562, read-out: LC50) greater than 100 µM. For the same compound, the GI50 (MOLT-4 (Leukemia); MOLT-4) was 1.84 µM, the IC (TGI) (MOLT-4 (Leukemia); MOLT-4, 48 h, read-out: TGI) was 4.16 µM and the GI50 (RPMI-8226 (Leukemia); RPMI-8226) was 2.12 µM. It also gave an IC (TGI) (RPMI-8226 (Leukemia); RPMI-8226, 48 h, read-out: TGI) of 4.63 µM, a CC50 (RPMI-8226 (Leukemia); RPMI-8226, read-out: LC50) greater than 100 µM and a GI50 (HOP-92 (NSC lung cancer); HOP-92) of 1.45 µM. For the same compound, the IC (TGI) (HOP-92 (NSC lung cancer); HOP-92, 48 h, read-out: TGI) was 2.97 µM, the CC50 (HOP-92 (NSC lung cancer); HOP-92, read-out: LC50) was 6.11 µM and the GI50 ([1]; NCI-H226) was 1.66 µM. For the same compound, the IC (TGI) ([1]; NCI-H226, 48 h, read-out: TGI) was 3.47 µM, the GI50 (COLO 205 (Colon cancer); COLO 205) was 1.62 µM and the IC (TGI) (COLO 205 (Colon cancer); COLO 205, 48 h, read-out: TGI) was 3.26 µM. For the same compound, the GI50 (HCC-2998 (Colon cancer); HCC 2998) was 1.58 µM, the IC (TGI) (HCC-2998 (Colon cancer); HCC 2998, 48 h, read-out: TGI) was 3.18 µM and the GI50 (HCT-15 (Colon cancer); HCT-15) was 1.61 µM. The IC (TGI) (HCT-15 (Colon cancer); HCT-15, 48 h, read-out: TGI) was 3.17 µM, the GI50 (HT29 (Colon cancer); HT-29) was 1.48 µM and the IC (TGI) (HT29 (Colon cancer); HT-29, 48 h, read-out: TGI) was 3.08 µM. It also gave a GI50 (KM12 (Colon cancer); KM12) of 1.86 µM, an IC (TGI) (KM12 (Colon cancer); KM12, 48 h, read-out: TGI) of 3.57 µM and a CC50 (KM12 (Colon cancer); KM12, read-out: LC50) of 6.85 µM. It also gave a GI50 (SW-620 (Colon cancer); SW-620) of 1.78 µM, an IC (TGI) (SW-620 (Colon cancer); SW-620, 48 h, read-out: TGI) of 3.54 µM and a CC50 (SW-620 (Colon cancer); SW-620, read-out: LC50) of 7.04 µM. It also gave a GI50 (SNB-19 (CNS cancer); SNB-19) of 1.91 µM, an IC (TGI) (SNB-19 (CNS cancer); SNB-19, 48 h, read-out: TGI) of 3.62 µM and a GI50 (MALME-3M (Melanoma)) of 1.68 µM. The IC (TGI) (MALME-3M (Melanoma); 48 h, read-out: TGI) was 3.26 µM, the CC50 (MALME-3M (Melanoma); read-out: LC50) was 6.34 µM and the GI50 (SK-MEL-5 (Melanoma); SK-MEL-5) was 1.82 µM. The IC (TGI) (SK-MEL-5 (Melanoma); SK-MEL-5, 48 h, read-out: TGI) was 3.39 µM, the GI50 (UACC-257 (Melanoma); UACC-257) was 1.85 µM and the IC (TGI) (UACC-257 (Melanoma); UACC-257, 48 h, read-out: TGI) was 3.68 µM. For the same compound, the GI50 (IGROV1 (Ovarian cancer); IGROV-1) was 1.79 µM, the IC (TGI) (IGROV1 (Ovarian cancer); IGROV-1, 48 h, read-out: TGI) was 3.43 µM and the GI50 (TK-10 (Renal cancer); TK-10) was 1.88 µM. For the same compound, the IC (TGI) (TK-10 (Renal cancer); TK-10, 48 h, read-out: TGI) was 3.59 µM, the CC50 (TK-10 (Renal cancer); TK-10, read-out: LC50) was 6.85 µM and the GI50 (UO-31 (Renal cancer); UO-31) was 1.46 µM. For the same compound, the IC (TGI) (UO-31 (Renal cancer); UO-31, 48 h, read-out: TGI) was 2.85 µM, the CC50 (UO-31 (Renal cancer); UO-31, read-out: LC50) was 5.59 µM and the GI50 (DU-145 (Prostate cancer); DU-145) was 1.81 µM. It also gave an IC (TGI) (DU-145 (Prostate cancer); DU-145, 48 h, read-out: TGI) of 3.4 µM, a CC50 (DU-145 (Prostate cancer); DU-145, read-out: LC50) of 6.39 µM and a GI50 (MCF7 (Breast cancer); MCF7) of 1.51 µM. For the same compound, the IC (TGI) (MCF7 (Breast cancer); MCF7, 48 h, read-out: TGI) was 3.18 µM, the GI50 (HS 578T (Breast cancer)) was 1.94 µM and the IC (TGI) (HS 578T (Breast cancer); 48 h, read-out: TGI) was 4.26 µM. For the same compound, the CC50 (HS 578T (Breast cancer); read-out: LC50) was 9.37 µM, the GI50 (T-47D (Breast cancer)) was 1.55 µM and the IC (TGI) (T-47D (Breast cancer); 48 h, read-out: TGI) was 3.26 µM. The CC50 (T-47D (Breast cancer); read-out: LC50) was 6.85 µM.
